Reference: patent US20250115583A1, “BICYCLIC INDAZOLE GLUCOCORTICOID RECEPTOR ANTAGONISTS” (Corcept Therapeutics Incorporated, priority 2021, published 2025)

These molecules were tested against glucocorticoid receptor (Homo sapiens (Human), UniProt P04150) (assay: HepG2 TAT assay: inhibition of dexamethasone-induced tyrosine aminotransferase (TAT) activity). Conditions: HepG2 cells, challenge of 100 nM dexamethasone, 18-24 hr; IC50 converted to Ki by Cheng and Prusoff equation.
Chain of glucocorticoid receptor (P04150 whole entry): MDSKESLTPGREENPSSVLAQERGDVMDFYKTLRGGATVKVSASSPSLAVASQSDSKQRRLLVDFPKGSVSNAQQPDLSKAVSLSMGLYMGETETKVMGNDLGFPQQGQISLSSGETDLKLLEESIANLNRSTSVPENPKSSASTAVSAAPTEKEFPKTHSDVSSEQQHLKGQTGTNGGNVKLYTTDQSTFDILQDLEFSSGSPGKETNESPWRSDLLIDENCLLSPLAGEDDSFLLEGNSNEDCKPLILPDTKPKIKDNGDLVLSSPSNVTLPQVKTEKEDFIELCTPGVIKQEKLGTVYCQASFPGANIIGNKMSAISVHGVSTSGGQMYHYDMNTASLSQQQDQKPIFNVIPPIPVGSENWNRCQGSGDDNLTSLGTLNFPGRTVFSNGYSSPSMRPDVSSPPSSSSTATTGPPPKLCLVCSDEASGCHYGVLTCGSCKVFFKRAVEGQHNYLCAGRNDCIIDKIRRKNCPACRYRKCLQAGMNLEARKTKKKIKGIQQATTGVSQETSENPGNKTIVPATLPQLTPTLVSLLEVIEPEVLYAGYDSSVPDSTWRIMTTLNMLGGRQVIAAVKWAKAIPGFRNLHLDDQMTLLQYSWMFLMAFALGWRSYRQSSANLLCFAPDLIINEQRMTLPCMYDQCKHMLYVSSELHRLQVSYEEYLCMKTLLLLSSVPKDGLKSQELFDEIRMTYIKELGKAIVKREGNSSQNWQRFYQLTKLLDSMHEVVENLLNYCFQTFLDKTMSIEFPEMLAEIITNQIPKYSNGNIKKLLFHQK
Assay type: cell-based
In short: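 Cells lysed 15 min at 4 °C; TAT enzyme reaction 2 h at 37 °C, stopped with KOH, 30 min further at 37 °C. Inhibition fitted to 4-parameter logistic.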
Work on `Cc1cc2c(cnn2-c2ccc(F)cc2)cc1[C@@]12CN(C(=O)c3cccc(C(C)C)n3)C[C@@H]1[C@H]2c1ccccc1` (stereo in doubt) [Example 166, (1-(1-(4-fluorophenyl)-6-methyl-1H-indazol-5-yl)-6-phenyl-3-azabicyclo[3.1.0]hexan-3-yl)(6-isopropylpyridin-2-yl)methanone] yielded a Ki of 47 nM.
Molecule `Cc1cc2c(cnn2-c2ccc(F)cc2)cc1[C@@]12CN(C(=O)c3ccc(C(F)(F)F)cn3)C[C@@H]1[C@H]2c1ccccc1` (stereo in doubt) [Example 168, (1-(1-(4-fluorophenyl)-6-methyl-1H-indazol-5-yl)-6-phenyl-3-azabicyclo[3.1.0]hexan-3-yl)(5-(trifluoromethyl)pyridin-2-yl)methanone] has a Ki of 39 nM.
`COc1ccnc(C(=O)N2C[C@@H]3[C@@H](c4ccccc4)[C@]3(c3cc4cnn(-c5ccc(F)cc5)c4cc3C)C2)c1` (stereo in doubt) [Example 169, (1-(1-(4-fluorophenyl)-6-methyl-1H-indazol-5-yl)-6-phenyl-3-azabicyclo[3.1.0]hexan-3-yl)(4-methoxypyridin-2-yl)methanone] was tested, and the Ki was 35 nM.
In the case of `Cc1cc2c(cnn2-c2ccc(F)cc2)cc1[C@@]12CN(C(=O)c3ncccn3)C[C@@H]1[C@H]2c1ccccc1` (stereo in doubt) [Example 171, (1-(1-(4-fluorophenyl)-6-methyl-1H-indazol-5-yl)-6-phenyl-3-azabicyclo[3.1.0]hexan-3-yl)(pyrimidin-2-yl)methanone], the Ki is reported as 36 nM.
`Cc1cc2c(cnn2-c2ccc(F)cc2)cc1[C@@]12CN(C(=O)c3ccccc3)C[C@@H]1[C@H]2c1cccnc1` (stereo in doubt) [Example 173, (1-(1-(4-fluorophenyl)-6-methyl-1H-indazol-5-yl)-6-(pyridin-3-yl)-3-azabicyclo[3.1.0]hexan-3-yl)(phenyl)methanone] was tested, and the Ki was 130 nM.
`Cc1cc2c(cnn2-c2ccc(F)cc2)cc1[C@@]12CN(C(=O)c3ccccc3N3CCOCC3)C[C@@H]1[C@H]2c1ccccc1` (stereo in doubt) [Example 174, (1-(1-(4-fluorophenyl)-6-methyl-1H-indazol-5-yl)-6-phenyl-3-azabicyclo[3.1.0]hexan-3-yl)(2-morpholinophenyl)methanone] showed a Ki of 39 nM.
Work on `Cc1csc(C(=O)N2C[C@@H]3[C@@H](c4ccccc4)[C@]3(c3cc4cnn(-c5ccc(F)cc5)c4cc3C)C2)n1` (stereo in doubt) [Example 175, (1-(1-(4-fluorophenyl)-6-methyl-1H-indazol-5-yl)-6-phenyl-3-azabicyclo[3.1.0]hexan-3-yl)(4-methylthiazol-2-yl)methanone] yielded a Ki of 13 nM.
Molecule `Cc1cnc(C(=O)N2C[C@@H]3[C@@H](c4ccccc4)[C@]3(c3cc4cnn(-c5ccc(F)cc5)c4cc3C)C2)s1` (stereo in doubt) [Example 176, (1-(1-(4-fluorophenyl)-6-methyl-1H-indazol-5-yl)-6-phenyl-3-azabicyclo[3.1.0]hexan-3-yl)(5-methylthiazol-2-yl)methanone] has a Ki of 45 nM.
Work on `Cc1cc2c(cnn2-c2ccc(F)cc2)cc1[C@@]12CN(C(=O)c3cc(C)n(C)n3)C[C@@H]1[C@H]2c1ccccc1` (stereo in doubt) [Example 177, (1,5-dimethyl-1H-pyrazol-3-yl)(1-(1-(4-fluorophenyl)-6-methyl-1H-indazol-5-yl)-6-phenyl-3-azabicyclo[3.1.0]hexan-3-yl)methanone] yielded a Ki of 23 nM.
Work on `Cc1cc2c(cnn2-c2ccc(F)cc2)cc1[C@@]12CN(Cc3ccccn3)C[C@@H]1[C@H]2c1ccccc1` (stereo in doubt) [Example 179, 1-(4-fluorophenyl)-6-methyl-5-(6-phenyl-3-(pyridin-2-ylmethyl)-3-azabicyclo[3.1.0]hexan-1-yl)-1H-indazole] yielded a Ki of 48 nM.
With `Cc1cc2c(cnn2-c2ccc(F)cc2)cc1[C@@]12CN(C(=O)c3ccccc3)C[C@@H]1[C@H]2CN1CCOCC1` (stereo in doubt) [Example 180, (1-(1-(4-fluorophenyl)-6-methyl-1H-indazol-5-yl)-6-(morpholinomethyl)-3-azabicyclo[3.1.0]hexan-3-yl)(phenyl)methanone] the Ki was 600 nM.
`Cc1cc2c(cnn2-c2ccc(F)cc2)cc1[C@@]12CN(C(=O)c3ccccc3)C[C@@H]1[C@]2(C)c1ccccc1` (stereo in doubt) [Example 182, (1-(1-(4-fluorophenyl)-6-methyl-1H-indazol-5-yl)-6-methyl-6-phenyl-3-azabicyclo[3.1.0]hexan-3-yl)(phenyl)methanone] showed a Ki of 180 nM.
With `Cc1cc2c(cnn2-c2ccc(F)cc2)cc1[C@@]12CN(C(=O)c3ccccc3)C[C@@H]1[C@@]2(C)c1ccccc1` (stereo in doubt) [Example 183, (1-(1-(4-fluorophenyl)-6-methyl-1H-indazol-5-yl)-6-methyl-6-phenyl-3-azabicyclo[3.1.0]hexan-3-yl)(phenyl)methanone] the Ki was 37 nM.
Molecule `Cc1cc2c(cnn2-c2ccc(F)cc2)cc1[C@@]12CN(C(=O)c3ccccc3)C[C@@H]1[C@H]2Cc1ccccc1` (stereo in doubt) [Example 184, (6-benzyl-1-(1-(4-fluorophenyl)-6-methyl-1H-indazol-5-yl)-3-azabicyclo[3.1.0]hexan-3-yl)(phenyl)methanone] has a Ki of 860 nM.
`Cc1cc2c(cnn2-c2ccc(F)cc2)cc1[C@@]12CN(c3ncccn3)C[C@@H]1[C@H]2c1ccccc1` (stereo in doubt) [Example 185, 1-(4-fluorophenyl)-6-methyl-5-(6-phenyl-3-(pyrimidin-2-yl)-3-azabicyclo[3.1.0]hexan-1-yl)-1H-indazole] gave a Ki of 100 nM.
`Cc1cc2c(cnn2-c2ccc(F)cc2)cc1[C@]12CN(C(=O)c3ccccc3)C[C@H]1[C@H]2c1ccccn1` (stereo in doubt) [Example 186, (1-(1-(4-fluorophenyl)-6-methyl-1H-indazol-5-yl)-6-(pyridin-2-yl)-3-azabicyclo[3.1.0]hexan-3-yl)(phenyl)methanone] showed a Ki of 630 nM.
`Cc1cc2c(cnn2-c2ccc(F)cc2)cc1C12CC(=O)CC1CN(C(=O)OC(C)(C)C)C2` (centres unmarked) [Example 1, tert-butyl 3a-(1-(4-fluorophenyl)-6-methyl-1H-indazol-5-yl)-5-oxohexahydrocyclopenta[c]pyrrole-2(1H)-carboxylate] gave a Ki of 370 nM.
`Cc1cc2c(cnn2-c2ccc(F)cc2)cc1C12CN(S(=O)(=O)c3cnn(C)c3)CC1CC(O)(c1nccs1)C2` (centres unmarked) [Example 2, 3a-(1-(4-fluorophenyl)-6-methyl-1H-indazol-5-yl)-2-((1-methyl-1H-pyrazol-4-yl)sulfonyl)-5-(thiazol-2-yl)octahydrocyclopenta[c]pyrrol-5-ol] gave a Ki of 490 nM.
Work on `COC1(c2nccs2)CC2CN(S(=O)(=O)c3cnn(C)c3)CC2(c2cc3cnn(-c4ccc(F)cc4)c3cc2C)C1` (centres unmarked) [Example 3, 2-(3a-(1-(4-fluorophenyl)-6-methyl-1H-indazol-5-yl)-5-methoxy-2-((1-methyl-1H-pyrazol-4-yl)sulfonyl)octahydrocyclopenta[c]pyrrol-5-yl)thiazole] yielded a Ki of 290 nM.
`Cc1cc2c(cnn2-c2ccc(F)cc2)cc1C12CN(S(=O)(=O)c3cnn(C)c3)CC1CC(F)(c1ccccc1)C2` (centres unmarked) [Example 4, 5-(5-fluoro-2-((1-methyl-1H-pyrazol-4-yl)sulfonyl)-5-phenylhexahydrocyclopenta[c]pyrrol-3a(1H)-yl)-1-(4-fluorophenyl)-6-methyl-1H-indazole] showed a Ki of 540 nM.
`CO[C@]1(c2ccccc2)C[C@@H]2CN(S(=O)(=O)c3cnn(C)c3)C[C@]2(c2cc3cnn(-c4ccc(F)cc4)c3cc2C)C1` [Example 5, 1-(4-fluorophenyl)-5-((3aR,5R,6aS)-5-methoxy-2-((1-methyl-1H-pyrazol-4-yl)sulfonyl)-5-phenylhexahydrocyclopenta[c]pyrrol-3a(1H)-yl)-6-methyl-1H-indazole] showed a Ki of 240 nM.
For `CO[C@@]1(c2ccccc2)C[C@H]2CN(S(=O)(=O)c3cnn(C)c3)C[C@@]2(c2cc3cnn(-c4ccc(F)cc4)c3cc2C)C1` [Example 6, 1-(4-fluorophenyl)-5-((3aS,5S,6aR)-5-methoxy-2-((1-methyl-1H-pyrazol-4-yl)sulfonyl)-5-phenylhexahydrocyclopenta[c]pyrrol-3a(1H)-yl)-6-methyl-1H-indazole], the Ki was 44 nM.
`CO[C@@]1(c2ccccc2)C[C@@H]2CN(S(=O)(=O)c3cnn(C)c3)C[C@]2(c2cc3cnn(-c4ccc(F)cc4)c3cc2C)C1` [Example 7, 1-(4-fluorophenyl)-5-((3aR,5S,6aS)-5-methoxy-2-((1-methyl-1H-pyrazol-4-yl)sulfonyl)-5-phenylhexahydrocyclopenta[c]pyrrol-3a(1H)-yl)-6-methyl-1H-indazole] gave a Ki of 350 nM.
Work on `CO[C@]1(c2ccccc2)C[C@H]2CN(S(=O)(=O)c3cnn(C)c3)C[C@@]2(c2cc3cnn(-c4ccc(F)cc4)c3cc2C)C1` [Example 8, 1-(4-fluorophenyl)-5-((3aS,5R,6aR)-5-methoxy-2-((1-methyl-1H-pyrazol-4-yl)sulfonyl)-5-phenylhexahydrocyclopenta[c]pyrrol-3a(1H)-yl)-6-methyl-1H-indazole] yielded a Ki of 310 nM.
Molecule `Cc1cc2c(cnn2-c2ccc(F)cc2)cc1C12CN(S(C)(=O)=O)CC1CC(O)(c1ccccc1)C2` (centres unmarked) [Example 9] has a Ki of 130 nM.
With `Cc1cc2c(cnn2-c2ccc(F)cc2)cc1C12CN(S(=O)(=O)c3cnn(C)c3)CC1CC(O)(c1ccccc1)C2` (centres unmarked) [Example 10, 3a-(1-(4-fluorophenyl)-6-methyl-1H-indazol-5-yl)-2-((1-methyl-1H-pyrazol-4-yl)sulfonyl)-5-phenyloctahydrocyclopenta[c]pyrrol-5-ol] the Ki was 220 nM.
Molecule `COC1(c2ccccc2)CC2CN(S(=O)(=O)c3cnn(C)c3)CC2(c2cc3cnn(-c4ccc(F)cc4)c3cc2C)C1` (centres unmarked) [Example 11, 1-(4-Fluorophenyl)-5-(5-methoxy-2-((1-methyl-1H-pyrazol-4-yl)sulfonyl)-5-phenylhexahydrocyclopenta[c]pyrrol-3a(1H)-yl)-6-methyl-1H-indazole] has a Ki of 33 nM.
Work on `CCOC1(c2ccccc2)CC2CN(S(=O)(=O)c3cnn(C)c3)CC2(c2cc3cnn(-c4ccc(F)cc4)c3cc2C)C1` (centres unmarked) [Example 12] yielded a Ki of 170 nM.
`COC1(c2ccccc2)CC2CN(S(C)(=O)=O)CC2(c2cc3cnn(-c4ccc(F)cc4)c3cc2C)C1` (centres unmarked) [Example 13] gave a Ki of 78 nM.
